Experiments:
Type in all cases: cell-based, mouse
[1] = test system: EC d4; experiment: ZO1 tight junction immunofluorescence; conditions: EC d4 treated 48 h
[2] = test system: EC d6; experiment: Mitochondrial membrane potential (TMRM-MitoTracker Green); conditions: EC d6 treated 24 h
Method: Mitochondrial membrane potential (ΔΨm) was analyzed by live-cell imaging using TMRM-MitoTracker Green co-staining. Cells were seeded and differentiated on Poly-D-Lysine-fibronectine-coated live-imaging dishes. For staining, cells were incubated with 200nM MitoTracker Green (Invitrogen) and 50 nM TMRM (Invitrogen) in DMEM (30 min, 37 °C, 5% CO2). After washing with PBS, live-cell microscopy was performed using a spinning disc confocal microscope (PerkinElmer) equipped with a 60x oil-immersion objective (N.A = 1.49) and a Hamamatsu C9100 camera (1000 × 1000 pixel) (excitation (MitoTracker Green): 488 nm, excitation (TMRM): 561 nm). The cells were kept at 37 °C in OptiMEM supplemented with 10 mM HEPES during imaging. The images were obtained at emission wavelength of 527 nm (W55) and 615 nm (W70) for 488 nm and 561 nm excitation, respectively.

[3] = test system: EC d4 (endothelial progenitor cells); experiment: RT-qPCR mRNA expression; conditions: for Flk1 mRNA / Nanog mRNA / Oct4 mRNA / Pecam1 mRNA / Tie1 mRNA / VE-cad mRNA: analysed day 6, Fig 1C; for Ccl2 mRNA / Icam-1 mRNA / Vcam-1 mRNA / iNos mRNA / eNos mRNA: Fig 8D; for Gpx4 mRNA / Slc7a11 mRNA: Fig 6F
Method: Total RNA was purified using the RNeasy Mini Kit (Qiagen, Hilden, Germany). Reverse transcriptase (RT) reaction was performed with the HighCapacity cDNA Reverse Transcription Kit (Applied Biosystems, Darmstadt, Germany) using 900–2000 ng of RNA. Quantitative RT-qPCR analysis was performed using following conditions: (1) 95 °C–10 min; (2) 45 amplification cycles with 95 °C–15 s, 55 °C–15 s, and 72 °C–17 s; (3) 95 °C–1 min, 55 °C–1 min, 65 °C–5 s. If not stated otherwise, analyses were performed in technical triplicates using pooled samples from two independent experiments (each performed with biological duplicates) by use of a CFX96 cycler (BioRad) and the SensiMix SYBR Kit (Bioline, London, UK). The primers used for mRNA expression analyses are listed in Supplementary Table 1. To ensure the specificity of the amplification product, melting curves were recorded at the end of the run. mRNA expression levels were normalized to β-Actin and Gapdh. Relative mRNA expression in mESC or corresponding untreated controls was set to 1.0. Only changes in gene expression of ≤ 0.5- and ≥ 2-fold were considered as biologically relevant.
To monitor prototypical functions of endothelial cells, the uptake of fluorescent 1,1-dioctadecyl-3,3,3,3-tetra-methylindocarbocyanine-labeled acetylated LDL (Dil-acLDL) was examined. Briefly, cells were incubated with Dil-acLDL (10 µg/ml, 4 h, 37 °C). After fixation (3.7% cold formaldehyde/PBS (15 min, RT) nuclei were counterstained with DAPI. The uptake of DiI-acLDL was analyzed by fluorescence microscopy (Olympus BX43, 20x objective). Additionally, the response of differentiated EC to inflammatory cytokines was measured. After treatment with a pro-inflammatory cytokine mixture (TNFα/IL-1β, 10 ng/mL) for 1 h, mRNA expression of activated EC markers E-selectin, Icam-1, Vcam-1, Ccl2, eNos, iNos was analyzed (RT-qPCR).

[4] = test system: EC d4; experiment: VE-cadherin cell-cell junction immunostaining; conditions: EC d4 treated 48 h
[5] = test system: mESC; experiment: AlamarBlue cell viability; conditions: Mus musculus
Method: (§1) Drug-induced cytotoxicity was monitored by analyzing cell viability using the AlamarBlue assay, which measures the reduction of the non-fluorescent dye resazurin (Sigma [Steinheim, Germany]) to fluorescent resorufin by living (i.e. metabolically active) cells. Fluorescence was measured in quadruplicates (excitation: 535 nm, emission: 590 nm (Tecan infinite 200, Tecan, Männedorf, Switzerland)). Relative cell viability of the untreated control was set to 100%.

[6] = test system: EC d4 (endothelial progenitor cells); experiment: AlamarBlue cell viability; conditions: 48 h treatment
Method: as §1

[7] = EC d4 + 0.005 µM 48 h, analysed in EC d6
[8] = EC d4 + 0.005 µM 48 h, then + I/T (IL-1β/TNFα 10 ng/ml, 1 h)
[9] = EC d4 + 0.05 µM 48 h, analysed in EC d6
[10] = EC d4 + 0.05 µM 48 h, then + I/T (IL-1β/TNFα 10 ng/ml, 1 h)

COc1cccc2c1C(=O)c1c(O)c3c(c(O)c1C2=O)C[C@@](O)(C(=O)CO)C[C@@H]3O[C@H]1C[C@H](N)[C@H](O)[C@H](C)O1 [Dox, doxorubicin]
ZO1 containing tight junctions in EC d6 differentiated from treated EC d4 [1]: fragmented / interrupted ZO1 containing tight junctions
mitochondrial membrane potential [2]: significantly reduced
Flk1 mRNA ([3]; EC d4 + 0.005 µM 48 h): 18.23 Fold of mESC
Nanog mRNA ([3]; EC d4 + 0.005 µM 48 h): 0.03 Fold of mESC
Oct4 mRNA ([3]; EC d4 + 0.005 µM 48 h): 0.02 Fold of mESC
Pecam1 mRNA ([3]; EC d4 + 0.005 µM 48 h): 0.78 Fold of mESC
Tie1 mRNA ([3]; EC d4 + 0.005 µM 48 h): 90.91 Fold of mESC
VE-cad mRNA ([3]; EC d4 + 0.005 µM 48 h): 653.73 Fold of mESC
Ccl2 mRNA [3, 7]: 2.40 Fold of untreated control
Icam-1 mRNA [3, 7]: 3.06 Fold of untreated control
Vcam-1 mRNA [3, 7]: 0.44 Fold of untreated control
iNos mRNA [3, 7]: 4.75 Fold of untreated control
Ccl2 mRNA [3, 8]: 242.22 Fold of untreated control
Icam-1 mRNA [3, 8]: 14.94 Fold of untreated control
Vcam-1 mRNA [3, 8]: 1.13 Fold of untreated control
eNos mRNA [3, 8]: 157.09 Fold of untreated control
iNos mRNA [3, 8]: 4.95 Fold of untreated control
Atp7a mRNA ([3]; EC d4 + 0.005 µM 48 h, Fig 2D): 1.11 Fold of control
Ctr2 mRNA ([3]; EC d4 + 0.005 µM 48 h, Fig 2D): 1.25 Fold of control
Mdr1 mRNA ([3]; EC d4 + 0.005 µM 48 h, Fig 2D): 1.46 Fold of control
Mrp1 mRNA ([3]; EC d4 + 0.005 µM 48 h, Fig 2D): 1.32 Fold of control
Oct2 mRNA ([3]; EC d4 + 0.005 µM 48 h, Fig 2D): 0.33 Fold of control
Gpx4 mRNA ([3]; EC d4 + 0.005 µM 48 h): 1.07 Fold of untreated control
Slc7a11 mRNA ([3]; EC d4 + 0.005 µM 48 h): 1.71 Fold of untreated control
Cdkn1a mRNA ([3]; EC d4 + 0.005 µM 48 h, Fig 7B): 1.42 Fold of untreated control
Cdkn2a mRNA ([3]; EC d4 + 0.005 µM 48 h, Fig 7B): 1.12 Fold of untreated control
Glb1 mRNA ([3]; EC d4 + 0.005 µM 48 h, Fig 7B): 0.97 Fold of untreated control
Il6 mRNA ([3]; EC d4 + 0.005 µM 48 h, Fig 7B): 0.95 Fold of untreated control
Il8 mRNA ([3]; EC d4 + 0.005 µM 48 h, Fig 7B): 1.26 Fold of untreated control
Tp53 mRNA ([3]; EC d4 + 0.005 µM 48 h, Fig 7B): 0.98 Fold of untreated control
Flk1 mRNA ([3]; EC d4 + 0.05 µM 48 h): 26.95 Fold of mESC
Nanog mRNA ([3]; EC d4 + 0.05 µM 48 h): 0.02 Fold of mESC
Oct4 mRNA ([3]; EC d4 + 0.05 µM 48 h): 0.02 Fold of mESC
Pecam1 mRNA ([3]; EC d4 + 0.05 µM 48 h): 1.42 Fold of mESC
Tie1 mRNA ([3]; EC d4 + 0.05 µM 48 h): 146.88 Fold of mESC
VE-cad mRNA ([3]; EC d4 + 0.05 µM 48 h): 1297.80 Fold of mESC
Ccl2 mRNA [3, 9]: 23.54 Fold of untreated control
Icam-1 mRNA [3, 9]: 53.37 Fold of untreated control
Vcam-1 mRNA [3, 9]: 0.085 Fold of untreated control
eNos mRNA [3, 9]: 239.30 Fold of untreated control
iNos mRNA [3, 9]: 3.20 Fold of untreated control
Ccl2 mRNA [3, 10]: 2314.32 Fold of untreated control
Icam-1 mRNA [3, 10]: 154.74 Fold of untreated control
Vcam-1 mRNA [3, 10]: 0.39 Fold of untreated control
eNos mRNA [3, 10]: 234.32 Fold of untreated control
iNos mRNA [3, 10]: 3.41 Fold of untreated control
Atp7a mRNA ([3]; EC d4 + 0.05 µM 48 h, Fig 2D): 1.81 Fold of control
Atp7b mRNA ([3]; EC d4 + 0.05 µM 48 h, Fig 2D): 0.54 Fold of control
Ctr2 mRNA ([3]; EC d4 + 0.05 µM 48 h, Fig 2D): 1.38 Fold of control
Mdr1 mRNA ([3]; EC d4 + 0.05 µM 48 h, Fig 2D): 105.13 Fold of control
Mrp1 mRNA ([3]; EC d4 + 0.05 µM 48 h, Fig 2D): 1.43 Fold of control
Oct2 mRNA ([3]; EC d4 + 0.05 µM 48 h, Fig 2D): 0.53 Fold of control
Brca1 mRNA ([3]; EC d4 + 0.05 µM 48 h, Fig 5C): 0.25 Fold of mESC
Chk1 mRNA ([3]; EC d4 + 0.05 µM 48 h, Fig 5C): 0.34 Fold of mESC
Rad51 mRNA ([3]; EC d4 + 0.05 µM 48 h, Fig 5C): 0.27 Fold of mESC
Pgc1a mRNA ([3]; EC d4 + 0.05 µM 48 h, Fig 6D): 24.33 Fold of untreated control
Gpx4 mRNA ([3]; EC d4 + 0.05 µM 48 h): 1.35 Fold of untreated control
Slc7a11 mRNA ([3]; EC d4 + 0.05 µM 48 h): 3.43 Fold of untreated control
Cdkn1a mRNA ([3]; EC d4 + 0.05 µM 48 h, Fig 7B): 4.89 Fold of untreated control
Cdkn2a mRNA ([3]; EC d4 + 0.05 µM 48 h, Fig 7B): 3.09 Fold of untreated control
Glb1 mRNA ([3]; EC d4 + 0.05 µM 48 h, Fig 7B): 1.54 Fold of untreated control
Il6 mRNA ([3]; EC d4 + 0.05 µM 48 h, Fig 7B): 1.91 Fold of untreated control
Il8 mRNA ([3]; EC d4 + 0.05 µM 48 h, Fig 7B): 25.17 Fold of untreated control
Cldn5 mRNA ([3]; EC d4 + 0.05 µM 48 h, Fig 8C): 1.35 Fold of EC d4 or d6
Ocln mRNA ([3]; EC d4 + 0.05 µM 48 h, Fig 8C): 1.78 Fold of EC d4 or d6
Tjp1 mRNA ([3]; EC d4 + 0.05 µM 48 h, Fig 8C): 2.10 Fold of EC d4 or d6
Ldlr mRNA ([3]; EC d4 + 0.05 µM 48 h, Fig 8F): 0.45 Fold of untreated control
VE-cadherin cell-cell junctions in EC d6 differentiated from treated EC d4 [4]: disturbed
IC50 ([5]; 24 h treatment): 170 nM
IC50 ([5]; 72 h treatment): 9 nM
susceptibility (cell viability) of EC d4 as compared to both mESC and EC d6 [6]: significant higher

Source: publication PMC13308190, “Endothelial progenitor cell susceptibility to DNA damaging and DDR-modulating compounds determines endothelial differentiation accuracy” (Stem Cell Research & Therapy, 2026)
